Source: PubChem BioAssay AID1312 (NMMLSC, 2008)
Calls of active or inactive are those of the source.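 How the source made its calls: active means area under the green fluorescent protein level over time curve over 15% above untreated cells; inactive means the rest.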 Peptide text beside a SMILES is read from it. * marks the point of attachment. Cbz = O=C(OCc1ccccc1)*

Test system: S. cerevisiae Sic1-GFP degradation, flow cytometry time course
Experiment: yeast Sic1MUS-GFP fusion turnover – flow cytometry, Sic1MUS mutant, S. cerevisiae, mechanism study for 26S proteasome disassembly project, confirmation (AID 1312)

Compound | outcome
CC(=O)N1C(=O)C(=C2C=C(C)OC(C)=C2)c2ccccc21 | active; degradation inhibitor
CC(C)C[C@@H](C=O)NC(=O)[C@H](CC(C)C)NC(=O)[C@H](CC(C)C)NC(=O)OCc1ccccc1 (Cbz-Leu-Leu-Leu-aldehyde) | inactive
